Target: T1, human PARG (Homo sapiens, UniProt Q86W56)
T1 construct: human PARG from amino acid 378 to 976; GST (glutathione-S-transferase, pGEX-4T1) (N); made in house; host or cells: E. coli BL21
Assay: PARG enzymatic assay
Type: biochemical
Settings: recombinant GST-fused human PARG (aa 378-976); 3H-labeled poly-(ADP-ribose) substrate; 23° C., 10 min
Protocol: The potency of PARG inhibition was determined in a PARG enzymatic assay. For each compound, various doses were used to inhibit the PARG reaction. A dose responsible curve was generated to determine the IC50 value and the concentration (in μM) required to achieve 50% inhibition of the reaction.
The PARG assay consisted of (a) preparation of 3H-labeled radioactive PARG as substrate, (b) purification of recombinant PARG, (c) incubation of the compound with the PARG reaction, (d) separation of the product by absorption to glass fiber filter and quantifying the radioactivity of ADP-ribose by scintillation counting.
3H-labeled poly-(ADP-ribose) was made by mixing labeled and unlabeled PAR. Labeled PAR was synthesized in a reaction of 50 mM Tris-HCl (pH 8.0), 4 mM MgCl2, 0.8 μg/mL activated DNA, 3 μM NAD, NEN 3H-NAD (0.1 mCi/mL), 0.8 μl/mL and 1.4 μl/mL Trevigen PARP. The reaction was incubated at room temperature for 60 min, then dialyzed to remove unincorporated 3H NAD using a MWCO 7000 dialysis cassette in 50 mM Phosphate buffer (pH 7.1) at 5° C. over night. Buffer was changed and dialysis continued for 2 h in the morning. The resulting 3H PAR gave 80,000 DPM/10 μL by scintillation counting.
Unlabeled PAR was synthesized in a reaction that consisted of 50 mM Tris-HCl (pH 8.0), 4 mM MgCl2, 0.8 μg/mL activated DNA, 150 μM NAD, and 1.9 μl/mL Trevigen PARP. The reaction was incubated at room temperature for 60 min, and dialyzed to remove unincorporated NAD in a MWCO 7000 cassette using 50 mM Phosphate buffer (pH 7.1) over night at […]. Buffer was changed and dialysis continued for 2 h in the morning. The OD260 of synthesized PAR is […].
The final PAR mix is made by combining 3H-PAR and PAR synthesized @ 150 μM NAD so that the OD260=0.2-0.3 and the DPM/10 μL=10,000 DPM (SA=0.45 Ci/mmole). EDTA was added to 1 mM.
A cDNA fragment encoding the carboxy terminal part of human PARG from amino acid 378 to 976 was amplified by polymerase chain reaction with human thymus cDNA (Clontech, Palo Alto, Calif.) as a template and a pair of primers with the sequences of 5′-[…]-3′ and 5′-[…]-3′. The primers contained the restriction enzyme sites EcoRI and XhoI. The PCR amplified PARG DNA fragment was digested with EcoRI and XhoI, and then ligated to the same sites in pGEX-4T1 plasmid (acquired from Pharmacia/Upjohn Co., Kalamazoo, Mich.) to create pGEX-PARG by using standard molecular biology procedure. The pGEX-PARG was transformed into E. coli strain BL21 for expressing the recombinant protein that has a glutathione-S-transferase at the amino terminus and fused in frame with PARG at the carboxy terminus. The recombinant protein was expressed and purified using glutathione-sephadex 4B beads according to the standard methodology.
A range of potential PARG inhibitors at final concentrations of 200.0 to 0.1 μM were tested, each point done in triplicate. The compounds were dissolved in DMSO resulting in a final DMSO concentration of 5.0%. The reaction was carried out in a volume of 0.1 mL. PARG enzyme was added to a concentration of 0.05 μL/mL to microtiter plates containing approximately 10 μM 3H-labeled poly-(ADP-ribose) in 50 mM Phosphate buffer (pH 7.1), 5 mM B-mercaptoethanol. The reaction was incubated at 23° C. for 10 min. and was stopped with the addition of TCA to a final concentration of 10%.
Enzyme activity was measured by the disappearance of substrate, [poly-(ADP-ribose) polymer], which was quantified as the loss of glass fiber filter adsorbed radioactivity. The reaction was harvested onto Millipore GFC96 well filter plates using the Packard Cell Harvestor. The plates were washed three times with 70% ethanol, air dried, and the radioactivity was measured by scintillation counting.

T1 sequence (Q86W56 378-976): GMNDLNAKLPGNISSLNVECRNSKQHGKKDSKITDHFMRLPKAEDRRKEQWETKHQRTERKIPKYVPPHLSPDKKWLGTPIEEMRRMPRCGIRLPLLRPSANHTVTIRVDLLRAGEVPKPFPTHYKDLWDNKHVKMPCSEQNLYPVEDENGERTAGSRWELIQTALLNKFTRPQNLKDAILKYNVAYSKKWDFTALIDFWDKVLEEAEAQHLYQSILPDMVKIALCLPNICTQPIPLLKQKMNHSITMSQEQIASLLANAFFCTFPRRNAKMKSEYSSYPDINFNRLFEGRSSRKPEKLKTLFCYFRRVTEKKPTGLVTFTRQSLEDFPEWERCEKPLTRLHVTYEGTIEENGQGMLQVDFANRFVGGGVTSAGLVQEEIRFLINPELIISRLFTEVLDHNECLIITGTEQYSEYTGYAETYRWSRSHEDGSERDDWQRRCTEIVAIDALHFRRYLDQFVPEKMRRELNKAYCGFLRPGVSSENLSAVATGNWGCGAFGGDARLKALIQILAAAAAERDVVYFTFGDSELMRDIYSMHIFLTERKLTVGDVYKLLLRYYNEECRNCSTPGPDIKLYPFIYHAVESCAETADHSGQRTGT

Molecule	IC50
O=C(OCc1cccc2ccccc12)c1ccc2c(c1)C(Cl)(Cl)c1cc(C(=O)OCc3cccc4ccccc34)ccc1-2 [Example 11, 9,9-Dichloro-9H-fluorene-2,7-dicarboxylic acid bis-(2-naphthalen-1-yl-methyl) ester]	7.9 µM
O=C(NCc1cccc2ccccc12)c1ccc2c(c1)C(Cl)(Cl)c1cc(C(=O)NCc3cccc4ccccc34)ccc1-2 [Example 14, 2,7 Bis-[N-(naphthalen-1-ylmethyl)-carbamoyl]-9,9-dichloro-9H-fluorene]	47.7 µM
COc1ccc(CCCCOC(=O)c2ccc3c(c2)C(Cl)(Cl)c2cc(C(=O)OCCCCc4ccc(OC)cc4)ccc2-3)cc1 [Example 12, 9,9-Dichloro-9H-fluorene-2,7-dicarboxylic acid bis-[4-(4-methoxy-phenyl)-butyl]ester]	18.3 µM
COc1ccc(CNC(=O)c2ccc3c(c2)-c2ccc(C(=O)NCc4ccc(OC)c(OC)c4)c4cccc-3c24)cc1OC [Example 28, 3,9-Bis[N-(3,4-dimethoxy-benzyl)]fluoranthenedicarboxamide]	11.1 µM
O=C(NCCN1CCCCC1)c1ccc2c(c1)-c1ccc(C(=O)NCCN3CCCCC3)c3cccc-2c13 [Example 24, 3,9-Bis[N-(2-piperidin-1-yl)ethyl]fluoranthenedicarboxamide]	57 µM
O=C(NCCN1CCCC1)c1ccc2c(c1)-c1ccc(C(=O)NCCN3CCCC3)c3cccc-2c13 [Example 25, 3,9-Bis[N-(2-pyrrolidin-1-yl)-ethyl]fluoranthenedicarboxamide]	28.6 µM
O=C(NCc1ccccc1)c1ccc(C(=O)c2ccc(C(=O)NCc3ccccc3)cc2)cc1 [Example 19, 4,4′-Bis(N-benzyl)carbamoyl-benzophenone]	75 µM
O=C(NCc1cccnc1)c1ccc2c(c1)-c1ccc(C(=O)NCc3cccnc3)c3cccc-2c13 [Example 26, 3,9-Bis[N-(pyridin-3-yl)methyl]fluoranthenedicarboxamide]	100 µM
O=C(NCc1ccccc1)c1ccc2c(c1)-c1ccc(C(=O)NCc3ccccc3)c3cccc-2c13 [Example 23, 3,9-Bis(N-phenylmethyl)fluoranthenedicarboxamide]	35.2 µM
O=C(OCc1ccc(O)c(O)c1)c1ccc2c(c1)C(Cl)(Cl)c1cc(C(=O)OCc3ccc(O)c(O)c3)ccc1-2 [Example 6, 9,9-Dichloro-9H-fluorene-2,7-dicarboxylic acid bis-(3,4-dihydroxy-benzyl) ester]	10 µM
O=C(OCc1ccc(F)cc1)c1ccc2c(c1)C(Cl)(Cl)c1cc(C(=O)OCc3ccc(F)cc3)ccc1-2 [Example 4, 9,9-Dichloro-9H-fluorene-2,7-dicarboxylic acid bis-(p-fluorobenzyl) ester]	18.9 µM
O=C(OCCc1ccc2ccccc2c1)c1ccc2c(c1)C(Cl)(Cl)c1cc(C(=O)OCCc3ccc4ccccc4c3)ccc1-2 [Example 9, 9,9-Dichloro-9H-fluorene-2,7-dicarboxylic acid bis-(2-naphthalen-2-yl-ethyl) ester]	46.6 µM
COC(=O)c1ccc2c(c1)C(Cl)(Cl)c1cc(C(=O)OC)ccc1-2 [Example 7, 9,9-Dichloro-9H-fluorene-2,7-dicarboxylic acid bis-methyl ester]	45.6 µM
O=C(NCCCc1ccccc1)c1ccc(C(=O)c2ccc(C(=O)NCCCc3ccccc3)cc2)cc1 [Example 20, 4,4′-Bis(N-phenpropyl)carbamoyl-benzophenone]	40.1 µM
O=C(NCCCN1CCOCC1)c1ccc2c(c1)-c1ccc(C(=O)NCCCN3CCOCC3)c3cccc-2c13 [Example 27]	100 µM
3,9-Bis[3-(1-pyrrolo)propionyl]fluoranthene [Example 55]	27.3 µM
O=C(OCCc1cccc2ccccc12)c1ccc2c(c1)C(Cl)(Cl)c1cc(C(=O)OCCc3cccc4ccccc34)ccc1-2 [Example 8, 9,9-Dichloro-9H-fluorene-2,7-dicarboxylic acid bis-(2-naphthalen-1-yl-ethyl) ester]	17.1 µM
O=C(NCCc1ccccc1)c1ccc2c(c1)C(Cl)(Cl)c1cc(C(=O)NCCc3ccccc3)ccc1-2 [Example 15, 2,7-Bis-[N-(phenethyl)-carbamoyl]-9,9-dichloro-9H-fluorene]	24.9 µM

Second part, the molecule after the results:

IC50	Molecule
11.5 µM	O=C(NCCc1cccs1)c1cccc2c1S(=O)(=O)c1c(cccc1C(=O)NCCc1cccs1)O2 [Example 50, 1,9-Bis{N-[2-(thiophen-2-yl)ethyl]carbamoyl}-10,10-dioxo-phenoxathiin]
9.9 µM	O=C(NCCN1CCCC1)c1cccc2c1S(=O)(=O)c1c(cccc1C(=O)NCCN1CCCC1)O2 [Example 49, 1,9-Bis{N-[2-(pyrrolidin-1-yl)ethyl]carbamoyl}-10,10-dioxo-phenoxathiin]
21.2 µM	O=C(NCCc1ccc(Cl)cc1Cl)c1ccc2c(c1)-c1ccc(C(=O)NCCc3ccc(Cl)cc3Cl)c3cccc-2c13 [Example 30, 3,9-Bis[N-[2-(2,4-dichloro-phenyl)]-ethyl]fluoranthenedicarboxamide]
100 µM	O=C(NCCCc1ccccc1)c1cccc2c1S(=O)(=O)c1c(cccc1C(=O)NCCCc1ccccc1)O2 [Example 47, 1,9-Bis-[N-(3-phenpropyl)carbamoyl]-10,10-dioxo-phenoxathiin]
15.1 µM	NS(=O)(=O)c1ccc(CCNC(=O)c2ccc3c(c2)-c2ccc(C(=O)NCCc4ccc(S(N)(=O)=O)cc4)c4cccc-3c24)cc1 [Example 35, 3,9-Bis[N-[2-(4-sulfamoyl-phenyl)]-ethyl]fluoranthenedicarboxamide]
106 µM	O=C(OCc1ccccn1)c1ccc2c(c1)-c1ccc(C(=O)OCc3ccccn3)c3cccc-2c13 [Example 36, 3,9-Bis(2-pyridinylmethyl)fluoranthenedicarboxylate]
21.1 µM	COc1ccccc1CCNC(=O)c1ccc2c(c1)-c1ccc(C(=O)NCCc3ccccc3OC)c3cccc-2c13 [Example 32, 3,9-Bis{N-[2-(2-methoxy-phenyl)]-ethyl}fluoranthenedicarboxamide]
5.4 µM	O=C(CCCn1cccc1)c1ccc2c(c1)-c1ccc(C(=O)CCCn3cccc3)c3cccc-2c13 [Example 54, 3,9-Bis[4-(1-pyrrolo)butyryl]fluoranthene]
29 µM	O=C(NCCOc1ccccc1)c1ccc2c(c1)-c1ccc(C(=O)NCCOc3ccccc3)c3cccc-2c13 [Example 29, 3,9-Bis[N-(2-phenoxy)ethyl]fluoranthenedicarboxamide]
17 µM	O=C(CCCl)c1ccc2oc3ccc(C(=O)CCCl)cc3c(=O)c2c1 [Example 38, 2,7-Bis-(3-chloro-propionyl)-xanthen-9-one]
38.7 µM	O=C(NCCc1ccc(Cl)cc1Cl)c1cccc2c1S(=O)(=O)c1c(cccc1C(=O)NCCc1ccc(Cl)cc1Cl)O2 [Example 48, 1,9-Bis{N-[2-(2,4-dichlorophenyl)ethyl]carbamoyl}-10,10-dioxo-phenoxathiin]
30.4 µM	N#CC1CCC(CNC(=O)c2ccc3c(c2)-c2ccc(C(=O)NCC4CCC(C#N)CC4)c4cccc-3c24)CC1 (centres unmarked) [Example 31]
45.5 µM	COc1cccc(CCNC(=O)c2ccc3c(c2)-c2ccc(C(=O)NCCc4cccc(OC)c4)c4cccc-3c24)c1 [Example 33, 3,9-Bis{N-[2-(3-methoxy-phenyl)]-ethyl}fluoranthenedicarboxamide]
9.6 µM	O=C(NCCCN1CCOCC1)c1cccc2c1S(=O)(=O)c1c(cccc1C(=O)NCCCN1CCOCC1)O2 [Example 51, 1,9-Bis{N-[3-(morpholin-4-yl)-propyl]carbamoyl}-10,10-dioxo-phenoxathiin]

From US6635786B2, “Symmetrically disubstituted aromatic compounds and pharmaceutical compositions for inhibiting poly (ADP-ribose) glycohydrolase, and methods for their use” (Guilford Pharmaceuticals, Inc., priority 2001, dated 2003)
